# Source: PubChem BioAssay (NCI)
#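 How tested: cells in 96-well plates exposed to compound for 48 hours at five concentrations. The concentration for full growth arrest is given as TGI.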
# Columns and labels:
# Assay in all cases: NCI-60 cell line screen, 48 h
# UO-31 renal = tested on: UO-31 renal
# UACC-62 melanoma = tested on: UACC-62 melanoma
# ACHN renal = tested on: ACHN renal
# SNB-19 CNS = tested on: SNB-19 CNS
# SF-539 CNS = tested on: SF-539 CNS
# HOP-62 NSCLC = tested on: HOP-62 NSCLC
# NCI/ADR-RES ovarian = tested on: NCI/ADR-RES ovarian
# SK-MEL-5 melanoma = tested on: SK-MEL-5 melanoma
# KM12 colon = tested on: KM12 colon
# OVCAR-5 ovarian = tested on: OVCAR-5 ovarian
# SR leukemia = tested on: SR leukemia
# HCT-116 colon = tested on: HCT-116 colon
# SK-MEL-2 melanoma = tested on: SK-MEL-2 melanoma
# HS 578T breast = tested on: HS 578T breast
# HOP-92 NSCLC = tested on: HOP-92 NSCLC
# HCC-2998 colon = tested on: HCC-2998 colon
# MDA-MB-435 = tested on: MDA-MB-435
SMILES,TGI (UO-31 renal),TGI (UACC-62 melanoma),TGI (ACHN renal),TGI (SNB-19 CNS),TGI (SF-539 CNS),TGI (HOP-62 NSCLC),TGI (NCI/ADR-RES ovarian),TGI (SK-MEL-5 melanoma),TGI (KM12 colon),TGI (OVCAR-5 ovarian),TGI (SR leukemia),TGI (HCT-116 colon),TGI (SK-MEL-2 melanoma),TGI (HS 578T breast),TGI (HOP-92 NSCLC),TGI (HCC-2998 colon),TGI (MDA-MB-435)
CCOC(=O)C(C/C=C/CO)N(C)C(=O)OC(C)(C)C (stereo not given),> 100 µM,> 100 µM,> 100 µM,> 100 µM,> 100 µM,> 100 µM,> 100 µM,> 100 µM,> 100 µM,> 100 µM,> 100 µM,> 100 µM,> 100 µM,> 100 µM,> 100 µM,–,–
O=C1C=C(N2CCN(CCOCCO)CC2)C(=O)c2c(O)ccc(O)c21,22.6 µM,4.1 µM,20.1 µM,33.7 µM,25.6 µM,32.7 µM,10.4 µM,3.12 µM,26.5 µM,12.8 µM,–,7.44 µM,18.5 µM,45.3 µM,20.7 µM,6.95 µM,3.33 µM
CC(C)=NOC(=O)Nc1cccc2c1OCO2,> 100 µM,> 100 µM,> 100 µM,> 100 µM,> 100 µM,> 100 µM,> 100 µM,> 100 µM,> 100 µM,> 100 µM,–,> 100 µM,> 100 µM,> 100 µM,> 100 µM,> 100 µM,> 100 µM
C=CCNC(=S)/N=C/C(C(=O)Nc1ccccc1C)=C(\C)O,> 100 µM,> 100 µM,> 100 µM,> 100 µM,> 100 µM,> 100 µM,> 100 µM,> 100 µM,> 100 µM,> 100 µM,–,> 100 µM,> 100 µM,> 100 µM,–,> 100 µM,> 100 µM
O=c1cc(N2CCCC2)[nH]c(=O)n1-c1ccc(Cl)cc1,–,> 100 µM,> 100 µM,> 100 µM,> 100 µM,> 100 µM,> 100 µM,–,> 100 µM,> 100 µM,–,> 100 µM,> 100 µM,> 100 µM,> 100 µM,> 100 µM,> 100 µM
O=C1c2cc([N+](=O)[O-])sc2C(=O)c2c([N+](=O)[O-])csc21,3.37 µM,1.19 µM,0.779 µM,3.02 µM,1.17 µM,–,4.16 µM,0.313 µM,2.6 µM,2.95 µM,0.173 µM,1.78 µM,3.77 µM,–,0.82 µM,2.3 µM,0.311 µM
O=C(O)c1ccc(N/C(=C(/C(Cl)=C(Cl)Cl)[N+](=O)[O-])n2nnc3ccccc32)cc1,> 100 µM,> 100 µM,> 100 µM,> 100 µM,> 100 µM,> 100 µM,> 100 µM,–,> 100 µM,> 100 µM,–,> 100 µM,> 100 µM,> 100 µM,–,> 100 µM,> 100 µM
